# From patent publication US20260091026A1, “METHODS OF TREATING INFLAMMATORY DISEASES” (INTERLINE THERAPEUTICS, INC., priority 2023, published 2026)
# Where two headings read alike, the source gives them in different places.
# Key:
# [1] = molecular target: T1, GST-RIPK2 fusion protein (human RIPK2 amino acids 1-310) (Homo sapiens, UniProt O43353); assay: RIPK2 binding competition assay (TR-FRET, Tracer 199); conditions: displacement of Tracer 199 (10 nM), 45 min at 22° C.
# T1 construct: made in house; host or cells: baculovirus-infected Sf9 cells
# Source text: The ability of selected compounds of Formulas (I) and (II) to inhibit the binding of an Alexa647-labelled ATP-competitive kinase inhibitor to a GST-RIPK2 fusion protein was quantified employing the TR-FRET-based RIPK2 binding competition assay as described in the following paragraphs.
# Recombinant fusion protein of N-terminal Glutathione-S-Transferase (GST) and a fragment of human RIPK2 (amino acids 1-310 of accession number 043353), expressed in baculovirus infected Sf9 cells, purified via glutathione affinity chromatography, was used as GST-RIPK2 fusion protein. Tracer 199 from Life Technologies (catalogue no. PR9115B) was used as Alexa647-labelled ATP-competitive kinase inhibitor.
# For the assay, 50 nL of a 100-fold concentrated solution of each test compound in DMSO was pipetted into either a black low volume 384-well microtiter plate or a black 1536-well microtiter plate (both Greiner Bio-One, Frickenhausen, Germany), 3 μL solution of Tracer 199 (16.7 nM=>final concentration in 5 μL assay volume is 10 nM) in aqueous assay buffer (25 mM Tris/HCl pH 7.5, 10 mM magnesium chloride (MgCl2), 5 mM β-glycerophosphate, 2.5 mM dithiothreitol (DTT), 0.5 mM ethylene glycol-bis(2-aminoethylether)-N,N,N′,N′-tetraacetic acid (EGTA), 0.5 mM sodium ortho-vanadate, 0.01% (w/v) bovine serum albumin (BSA), 0.005% (w/v) Pluronic F-127 (Sigma)) were added. Then the binding competition was started by the addition of 2 μL of a solution of the GST-RIPK2 fusion protein (2.5 nM=>final conc. in the 5 μL assay volume is 1 nM) and of Anti-GST-Tb (1.25 nM=>final conc. in the 5 μL assay volume is 0.5 nM), a Lumi4®—Tb cryptate-conjugated anti-GST antibody from PerkinElmer (catalogue no 61GSTTAH), in assay buffer.
# The resulting mixture was incubated 45 min at 22° C. to allow the formation of a complex between the Tracer 199, the fusion protein and Anti-GST-Tb. Subsequently, the amount of this complex was evaluated by measurement of the resonance energy transfer from the Tb-cryptate to the Tracer 199. Therefore, the fluorescence emissions at 620 nm and 665 nm after excitation at 337 nm were measured in a TR-FRET reader, e.g. a Pherastar FS(BMG Labtechnologies, Offenburg, Germany) or a Viewlux (PerkinElmer). The ratio of the emissions at 665 nm and at 620 nm was taken as the measure of the amount of the complex. The data were normalized (assay reaction without inhibitor=0% activity, all other assay components but no GST-RIPK2 fusion protein=−100% activity).
# [2] = test system: THP1-Dual cells, NF-κB pathway (SEAP); assay: THP-1 Dual cell SEAP assay (L18-MDP stimulated); assay type: cell-based; conditions: 10 ng/mL L18-MDP, 20-24 h, SEAP readout, read-out: IFNγ THP1 IC50
# Procedure, shortened: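 IC50 values come from non-linear fits of % inhibition of SEAP, measured as QUANTI-Blue optical density (620-655 nm, 2 h) in media-blanked supernatants. These were taken from THP1-Dual cells treated with compound for 30 min before overnight exposure to 10 ng/mL L18-MDP final at 37 °C.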
# RIPK2 (KD)/XIAP (BIR2) = molecular target: T2, RIPK2 (KD)/XIAP (BIR2) (Homo sapiens, UniProt O43353); assay: RIPK2-XIAP binding competition PPI assay (TR-FRET); conditions: for PPI Amax / Emax: 50 nM of GSK583 = -100% activity; for IC50: GST-RIPK2 / His-XIAP (BIR2)-avi, 120 min at 23° C.; for Emax: read-out: PPI Amax
# T2 construct: made in house; host or cells: baculovirus-infected Sf9 cells
# Procedure, shortened: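 After 2 h at 23 °C, complex formation was read as the 665/520 nm emission ratio (337 nm excitation), scaled between uninhibited reaction and 50 nM GSK583. The mix held 1 nM human RIPK2 kinase fragment-GST, 25 nM His-tagged XIAP BIR2 and Tb/XL665 antibodies in pH 7.5 Tris buffer containing vanadate and glycerophosphate.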
# T1 sequence (O43353 1-310): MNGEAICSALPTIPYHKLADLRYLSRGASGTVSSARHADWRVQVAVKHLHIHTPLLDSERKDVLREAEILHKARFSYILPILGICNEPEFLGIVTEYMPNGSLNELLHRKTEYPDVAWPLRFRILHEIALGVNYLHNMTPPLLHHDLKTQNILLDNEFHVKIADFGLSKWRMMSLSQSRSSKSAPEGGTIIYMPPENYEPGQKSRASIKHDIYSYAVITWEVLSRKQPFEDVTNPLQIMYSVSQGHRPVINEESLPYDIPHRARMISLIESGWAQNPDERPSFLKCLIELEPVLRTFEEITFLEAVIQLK
# T2 sequence (O43353 1-310): as above
SMILES,IC50 [1] [nM],IC50 ([2]; Homo sapiens) [nM],PPI Amax (RIPK2 (KD)/XIAP (BIR2)),IC50 (RIPK2 (KD)/XIAP (BIR2)) [nM],Emax (RIPK2 (KD)/XIAP (BIR2)) [%],IC50 [2] [nM]
"COc1cc2ncc(-n3cc(N4CCC(c5ccccc5)C4=O)cn3)n2cc1S(=O)(=O)C(C)(C)C (single isomer, unassigned) [Example 182, (R)- or (S)-1-(1-(6-(tert-butylsulfonyl)-7-methoxyimidazo[1,2-a]pyridin-3-yl)-1H-pyrazol-4-yl)-3-phenylpyrrolidin-2-one]",> 1000,> 2500,C (Amax of 55%>C>30),> 1000,,
"COc1cc2ncc(-n3cc(NC(=O)CC4CCCCC4)cn3)n2cc1S(=O)(=O)C(C)(C)C [Example 167, N-(1-(6-(tert-butylsulfonyl)-7-methoxyimidazo[1,2-a]pyridin-3-yl)-1H-pyrazol-4-yl)-2-cyclohexylacetamide]",> 1000,> 2500,,> 1000,≥ 80,
"COc1cc2ncc(-n3cc(C(=O)NCc4ccccc4)cn3)n2cc1S(=O)(=O)C(C)(C)C [Example 1, N-benzyl-1-(6-(tert-butylsulfonyl)-7-methoxyimidazo[1,2-a]pyridin-3-yl)-1H-pyrazole-4-carboxamide]",200 to 500,> 2500,,100 to 1000,≥ 80,
"COc1cc2ncc(-n3cc(NC(=O)[C@@H]4C[C@H]4c4ccccc4)cn3)n2cc1S(=O)(=O)C(C)(C)C [Example 168, (1R,2R)-N-(1-(6-(tert-butylsulfonyl)-7-methoxyimidazo[1,2-a]pyridin-3-yl)-1H-pyrazol-4-yl)-2-phenylcyclopropane-1-carboxamide]",> 1000,> 2500,,> 1000,≥ 80,
"COc1cc2ncc(-n3cc(NC(C)=O)cn3)n2cc1S(=O)(=O)C(C)(C)C [Example 155, N-(1-(6-(tert-butylsulfonyl)-7-methoxyimidazo[1,2-a]pyridin-3-yl)-1H-pyrazol-4-yl)acetamide]",> 1000,> 2500,,> 1000,≤ 30,
"COc1cc2ncc(-n3cc(NC(=O)[C@H]4C[C@H]4c4ccccc4)cn3)n2cc1S(=O)(=O)C(C)(C)C [Example 171, (1S,2R)-N-(1-(6-(tert-butylsulfonyl)-7-methoxyimidazo[1,2-a]pyridin-3-yl)-1H-pyrazol-4-yl)-2-phenylcyclopropane-1-carboxamide]",< 200,500 to 2500,,100 to 1000,≥ 80,
"COc1cc2ncc(-n3cc(NC(=O)Cc4ccccc4Cl)cn3)n2cc1S(=O)(=O)C(C)(C)C [Example 152, N-(1-(6-(tert-butylsulfonyl)-7-methoxyimidazo[1,2-a]pyridin-3-yl)-1H-pyrazol-4-yl)-2-(2-chlorophenyl)acetamide]",< 200,> 2500,,100 to 1000,≥ 80,
"COc1cc2ncc(-c3cc(C(=O)NCc4ccccc4Cl)n(C)n3)n2cc1S(=O)(=O)C(C)(C)C [Example 4, 3-(6-(tert-butylsulfonyl)-7-methoxyimidazo[1,2-a]pyridin-3-yl)-N-(2-chlorobenzyl)-1-methyl-1H-pyrazole-5-carboxamide]",< 200,500 to 2500,,10 to 100,≥ 80,
"COc1cc2ncc(-n3cc(NC(=O)[C@H](C)c4ccccc4)cn3)n2cc1S(=O)(=O)C(C)(C)C [Example 161, (R)-N-(1-(6-(tert-butylsulfonyl)-7-methoxyimidazo[1,2-a]pyridin-3-yl)-1H-pyrazol-4-yl)-2-phenylpropanamide]",200 to 500,> 2500,,100 to 1000,≥ 80,
"COc1cc2ncc(-c3cc(C(=O)NC4CCCCC4)n(C)n3)n2cc1S(=O)(=O)C(C)(C)C [Example 6, 3-(6-(tert-butylsulfonyl)-7-methoxyimidazo[1,2-a]pyridin-3-yl)-N-cyclohexyl-1-methyl-1H-pyrazole-5-carboxamide]",> 1000,> 2500,,> 1000,≥ 80,
"COc1cc2ncc(-n3cc(NC(=O)C4CCCCC4)cn3)n2cc1S(=O)(=O)C(C)(C)C [Example 164, N-(1-(6-(tert-butylsulfonyl)-7-methoxyimidazo[1,2-a]pyridin-3-yl)-1H-pyrazol-4-yl)cyclohexanecarboxamide]",> 1000,> 2500,,> 1000,≥ 80,
"COc1cc2ncc(-n3cc(N4CCC(c5ccccc5)C4=O)cn3)n2cc1S(=O)(=O)C(C)(C)C (racemic) [Example 180, 1-(1-(6-(tert-butylsulfonyl)-7-methoxyimidazo[1,2-a]pyridin-3-yl)-1H-pyrazol-4-yl)-3-phenylpyrrolidin-2-one]",> 1000,> 2500,,> 1000,≥ 80,
"COc1cc2ncc(-n3cc(NC(=O)C4CC4)cn3)n2cc1S(=O)(=O)C(C)(C)C [Example 163, N-(1-(6-(tert-butylsulfonyl)-7-methoxyimidazo[1,2-a]pyridin-3-yl)-1H-pyrazol-4-yl)cyclopropanecarboxamide]",> 1000,> 2500,,> 1000,≤ 30,
"COc1cc2ncc(-n3cc(NC(=O)N4CCCC4c4ccccc4)cn3)n2cc1S(=O)(=O)C(C)(C)C (single isomer, unassigned) [Example 179, (S)- or (R)-N-(1-(6-(tert-butylsulfonyl)-7-methoxyimidazo[1,2-a]pyridin-3-yl)-1H-pyrazol-4-yl)-2-phenylpyrrolidine-1-carboxamide]",500 to 1000,,A (Amax of ≥80%),> 1000,,> 2500
"CCn1nc(-c2cnc3cc(OC)c(S(=O)(=O)C(C)(C)C)cn23)cc1C(=O)N[C@H](C)c1ccccn1 [Example 95, (R)-3-(6-(tert-butylsulfonyl)-7-methoxyimidazo[1,2-a]pyridin-3-yl)-1-ethyl-N-(1-(pyridin-2-yl)ethyl)-1H-pyrazole-5-carboxamide]",,< 100,,< 10,≥ 80,
"COc1cc2ncc(-c3cc(C(=O)N[C@H](C)c4ccccc4F)n(C)n3)n2cc1S(=O)(=O)C(C)(C)C [Example 10, (R)-3-(6-(tert-butylsulfonyl)-7-methoxyimidazo[1,2-a]pyridin-3-yl)-N-(1-(2-fluorophenyl)ethyl)-1-methyl-1H-pyrazole-5-carboxamide]",,100 to 500,,10 to 100,≥ 80,
"COc1cc2ncc(-c3cc(C(=O)N[C@H](C)c4ccccn4)n(C)n3)n2cc1S(=O)(=O)C(C)(C)C [Example 42, (R)-3-(6-(tert-butylsulfonyl)-7-methoxyimidazo[1,2-a]pyridin-3-yl)-1-methyl-N-(1-(pyridin-2-yl)ethyl)-1H-pyrazole-5-carboxamide]",,100 to 500,,10 to 100,≥ 80,
"COc1cc2ncc(-c3cc(C(=O)NCc4cccc5ccnn45)n(C)n3)n2cc1S(=O)(=O)C(C)(C)C [Example 20, 3-(6-(tert-butylsulfonyl)-7-methoxyimidazo[1,2-a]pyridin-3-yl)-1-methyl-N-(pyrazolo[1,5-a]pyridin-7-ylmethyl)-1H-pyrazole-5-carboxamide]",,> 2500,,100 to 1000,≥ 80,
